What was measured:
Format in all cases: in vivo, humans
[1] = system: respiratory illness, COVID-19; experiment: Symptoms and recovery monitoring in individuals with COVID-19 administered R-beta-hydroxybutyrate; conditions: composition comprising 10 g twice a day
Procedure: (§1) A composition comprising 10 g of R-beta-hydroxybutyrate was administered to individuals twice a day. […] The patients were tested and monitored to determine the impact of administration of beta-hydroxybutyrate on the illness progression and recovery. Administration of the beta-hydroxybutyrate reduced the number of symptoms and the severity of symptoms. […] Since quicker returns to normal values may indicate less chances for long-term continuance of viral respiratory illnesses (e.g., long-haul or long-term Covid-19), administration of beta-hydroxybutyrate may be associated with decreased potential for long-term continuance of symptoms.

[2] = system: respiratory illness, COVID-19; experiment: Cough severity by Cough Severity Visual Analogue Scale over 4 days; conditions: 10 g, orally, vs not administered, FIG. 1
Procedure: as §1
FIG. 1 graphically illustrates cough measured over 4 days for individuals administrated 10 g of R-beta-hydroxybutyrate and not administered 10 g of R-beta-hydroxybutyrate. Cough severity was measured using the Cough Severity Visual Analogue Scale. As illustrated, cough severity was lower with administration of 10 g of R-beta-hydroxybutyrate. Furthermore, cough severity was not as high when beta-hydroxybutyrate was orally administered.

[3] = system: respiratory illness, COVID-19; experiment: Lung function (FEV) measurements over 4 days; conditions: FIG. 2
Procedure: as §1
FIG. 2 graphically illustrates lung function measurements over 4 days for individuals administered 10 g of R-beta-hydroxybutyrate and not administered 10 g of R-beta-hydroxybutyrate. […] As illustrated, improvement in FEV plateaued when beta-hydroxybutyrate was not administered while it continued to improve when R-beta-hydroxybutyrate was administered. Reduction in the chances of plateauing lung function (e.g., at reduced levels) may decrease potential for long-term continuance of symptoms such as those found in long term or long-haul COVID-19 sufferers (e.g., individuals who had COVID-19 and continue to present with symptoms 4 or more weeks after infection).

[4] = system: respiratory illness, COVID-19; experiment: Cardiovascular endurance, standard 15 minute cycling test over 4 days; conditions: 10 g vs not administered, FIG. 3
Procedure: as §1
FIG. 3 graphically illustrates endurance capacity monitoring in individuals over 4 days for individuals administered 10 g of R-beta-hydroxybutyrate and not administered 10 g of R-beta-hydroxybutyrate. Cardiovascular endurance was measured using a standard 15 minute cycling test and is illustrated in FIG. 3 as a percentage of normal.

C[C@@H](O)CC(=O)O [R-beta-hydroxybutyrate, (R)-3-Hydroxybutyric acid]
number of symptoms [1]: reduced
recovery time [1]: decreased
severity of symptoms [1]: reduced
cough severity (Cough Severity Visual Analogue Scale) [2]: lower
time for lung function to improve to normal ([3]; 10 g vs not administered (FEV plateaued without)): improve to normal more quickly
FEV (as a % of normal FEV) ([3]; 10 g vs not administered): higher overall
cardiovascular endurance as a percentage of normal [4]: overall better
recovery to normal cardiovascular endurance [4]: quicker recovery to normal

— patent US12396971B2, “Administration of beta-hydroxybutyrate and related compounds in humans for the treatment and/or prevention of respiratory illnesses” (AXCESS GLOBAL SCIENCES, LLC, priority 2020, dated 2025)
